Assay results from patent US7087736B1, “Tyrosine DNA phosphodiesterases (TDP) and related polypeptides nucleic acids vectors TDP producing host cells antibodies and methods of use” (priority 1999, dated 2006).

Test system: Saccharomyces cervisiae strains (parental, enz mutant, HNY243, HNY244)
Test: Sensitivity of yeast strains to killing by drug (colony survival after 24 hrs)
Format: cell-based
Excerpt: The strains were compared for sensitivity to killing by camptothecin. Despite the dramatic difference in TDP activity, the parental line and the backcrossed enz mutant were insensitive to camptothecin. When combined with a disruption of the RAD9 gene, the camptothecin sensitivity of the low activity mutant (strain HNY244) was increased by a factor of 12 relative to the rad9 derivative of the parental strain HNY243. The same difference was observed after the mutant had undergone two additional rounds of backcrossing. In order to confirm that camptothecin-induced damage was due to topoisomerase trapping, the TOP1 gene of HNY244 was disrupted and survival increased nearly 1,000-fold.
Each pool was separately grown and treated with camptothecin for 24 hours. Cells were grown to near-saturation in medium with glycerol in place of dextrose (YPG) to ensure a starting population with few or no petite derivatives in accordance with standard methods. These cells were resuspended at OD650=0.4 in YPD (bacto-yeast extract, peptone and dextrose standard yeast growth medium), grown for 2 hrs and diluted again in YPD to OD650=0.4. Drug was then added and samples were withdrawn immediately and after 24 hrs at 30° C. After dilution and plating on YPD, surviving colonies were counted after 3-4 days of growth. When plasmid-containing strains were assessed for camptothecin sensitivity, YPD was replaced throughout by uracil-deficient minimal medium to ensure plasmid retention. The survivors were amplified by growth in YPD.

Row | Compound | camptothecin sensitivity of YBR223c disruption strain (HNY243 with YBR223c ORF disrupted) | camptothecin resistance after transformation (HNY244 transformed with pNS2 or pAXb) | sensitivity to killing by camptothecin (backcrossed enz mutant (low TDP activity)) | increase of camptothecin sensitivity relative to rad9 derivative of parental strain HNY243 (low activity mutant with RAD9 disruption (strain HNY244)) [factor] | sensitivity to killing by camptothecin (parental line (normal TDP activity)) | increase of survival after disruption of TOP1 gene (strain HNY244 with TOP1 disrupted, camptothecin-induced damage) | sensitization of the mutant line to killing (low TDP activity mutant line)
1 | CC[C@@]1(O)C(=O)OCc2c1cc1n(c2=O)Cc2cc3ccccc3nc2-1 [camptothecin] | very similar to that of HNY244 | improved camptothecin resistance | insensitive | 12 | insensitive | ~1,000 fold | 
2 | COS(C)(=O)=O [methyl methane sulfonate] |  |  |  |  |  |  | not sensitized
